Laboratory results reported in the supplement of paper PMC9763283.

Assays:
Assay in all cases: area under growth-rate inhibition curve (AUC GRI) (dimensionless (GR-based AUC)); higher = less growth inhibition
Conditions in all cases: exposure time: 72 h; concentrations: 0.1, 1, 10 uM
MDA-MB-468 = system: MDA-MB-468
Summary of the method: (§1)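 The area under the growth-rate inhibition curve was measured in six breast cancer cell line models, covering triple-negative lines and HER2+ lines, both parental and resistant to a two-drug combination. Cells were exposed to compound at 0.1, 1 or 10 µM for 72 h, fixed in 4% paraformaldehyde, and nuclei were stained with Hoechst 33342 or DAPI for imaging and counting. Day 0 plates, untreated Day 3 plates and DMSO controls served to correct growth across 2 biological replicates.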

BT474-P = system: BT474-P
Summary of the method: as §1

SKBR3-LTR = system: SKBR3-LTR
Summary of the method: as §1

SKBR3-P = system: SKBR3-P
Summary of the method: as §1

BT474-LTR = system: BT474-LTR
Summary of the method: as §1

MDA-MB-231 = system: MDA-MB-231
Summary of the method: as §1

CN(C)CCC=C1c2ccccc2CCc2ccccc21.Cl [Amitriptyline HCl]
area under growth-rate inhibition curve (MDA-MB-468): 0.997
area under growth-rate inhibition curve (BT474-P): 1.03
area under growth-rate inhibition curve (SKBR3-LTR): 1.09
area under growth-rate inhibition curve (SKBR3-P): 0.983
area under growth-rate inhibition curve (BT474-LTR): 1.08
area under growth-rate inhibition curve (MDA-MB-231): 1.03

C#C[C@]1(O)C=C[C@H]2[C@@H]3CCC4=CC(=O)CC[C@@H]4[C@H]3CC[C@@]21CC [Gestodene]
area under growth-rate inhibition curve (MDA-MB-468): 1.03
area under growth-rate inhibition curve (BT474-P): 0.981
area under growth-rate inhibition curve (SKBR3-LTR): 1.12
area under growth-rate inhibition curve (SKBR3-P): 1.01
area under growth-rate inhibition curve (BT474-LTR): 1.04
area under growth-rate inhibition curve (MDA-MB-231): 1.03

C[NH+]1CCC[C@@H]1CCO[C@](C)(c1ccccc1)c1ccc(Cl)cc1.O=C([O-])/C=C/C(=O)O [Clemastine Fumarate]
area under growth-rate inhibition curve (MDA-MB-468): 0.932
area under growth-rate inhibition curve (BT474-P): 0.941
area under growth-rate inhibition curve (SKBR3-LTR): 0.958
area under growth-rate inhibition curve (SKBR3-P): 0.898
area under growth-rate inhibition curve (BT474-LTR): 1.02
area under growth-rate inhibition curve (MDA-MB-231): 1.02

Cc1nccn1CC1CCc2c(c3ccccc3n2C)C1=O.[Cl-].[H+] (configuration not stated) [Ondansetron HCl]
area under growth-rate inhibition curve (MDA-MB-468): 1.02
area under growth-rate inhibition curve (BT474-P): 1.05
area under growth-rate inhibition curve (SKBR3-LTR): 1.02
area under growth-rate inhibition curve (SKBR3-P): 1.03
area under growth-rate inhibition curve (BT474-LTR): 1.08
area under growth-rate inhibition curve (MDA-MB-231): 1.03

CN1C2CCC1CC(OC(=O)C(CO)c1ccccc1)C2 (configuration not stated) [Atropine]
area under growth-rate inhibition curve (MDA-MB-468): 1.04
area under growth-rate inhibition curve (BT474-P): 1.04
area under growth-rate inhibition curve (SKBR3-LTR): 1.09
area under growth-rate inhibition curve (SKBR3-P): 1.03
area under growth-rate inhibition curve (BT474-LTR): 1.11
area under growth-rate inhibition curve (MDA-MB-231): 1.03

NCCCCCNCC12CC3CC(CC(C3)C1)C2.[Br-].[Br-].[H+].[H+] [IEM 1754 dihydrobroMide]
area under growth-rate inhibition curve (MDA-MB-468): 1.03
area under growth-rate inhibition curve (BT474-P): 1.01
area under growth-rate inhibition curve (SKBR3-LTR): 1.04
area under growth-rate inhibition curve (SKBR3-P): 1.03
area under growth-rate inhibition curve (BT474-LTR): 1.07
area under growth-rate inhibition curve (MDA-MB-231): 1.04

CNC[C@H](O)c1cccc(O)c1.Cl [Phenylephrine HCl]
area under growth-rate inhibition curve (MDA-MB-468): 1.03
area under growth-rate inhibition curve (BT474-P): 1.01
area under growth-rate inhibition curve (SKBR3-LTR): 1.02
area under growth-rate inhibition curve (SKBR3-P): 0.985
area under growth-rate inhibition curve (BT474-LTR): 1.09
area under growth-rate inhibition curve (MDA-MB-231): 0.996

N[C@@H](Cc1ccc(O)c(O)c1)C(=O)O [L-DOPA]
area under growth-rate inhibition curve (MDA-MB-468): 1.05
area under growth-rate inhibition curve (BT474-P): 0.987
area under growth-rate inhibition curve (SKBR3-LTR): 1.05
area under growth-rate inhibition curve (SKBR3-P): 1.03
area under growth-rate inhibition curve (BT474-LTR): 1.04
area under growth-rate inhibition curve (MDA-MB-231): 1.05

NC(=O)OCC(COC(N)=O)c1ccccc1 [Felbamate]
area under growth-rate inhibition curve (MDA-MB-468): 1.03
area under growth-rate inhibition curve (BT474-P): 1.01
area under growth-rate inhibition curve (SKBR3-LTR): 1.05
area under growth-rate inhibition curve (SKBR3-P): 1.03
area under growth-rate inhibition curve (BT474-LTR): 1.02
area under growth-rate inhibition curve (MDA-MB-231): 1.04

CNC[C@H](O)c1ccc(O)c(O)c1.O=C(O)[C@H](O)[C@@H](O)C(=O)O [Epinephrine Bitartrate]
area under growth-rate inhibition curve (MDA-MB-468): 1.02
area under growth-rate inhibition curve (BT474-P): 1.03
area under growth-rate inhibition curve (SKBR3-LTR): 1.1
area under growth-rate inhibition curve (SKBR3-P): 1.01
area under growth-rate inhibition curve (BT474-LTR): 1.06
area under growth-rate inhibition curve (MDA-MB-231): 0.946

OCCN(CCO)c1nc(N2CCCCC2)c2nc(N(CCO)CCO)nc(N3CCCCC3)c2n1 [Dipyridamole]
area under growth-rate inhibition curve (MDA-MB-468): 0.962
area under growth-rate inhibition curve (BT474-P): 1.04
area under growth-rate inhibition curve (SKBR3-LTR): 1.05
area under growth-rate inhibition curve (SKBR3-P): 1.05
area under growth-rate inhibition curve (BT474-LTR): 1.12
area under growth-rate inhibition curve (MDA-MB-231): 0.97

CNCCC(Oc1ccc(C(F)(F)F)cc1)c1ccccc1.[Cl-].[H+] (configuration not stated) [Fluoxetine HCl]
area under growth-rate inhibition curve (MDA-MB-468): 1.03
area under growth-rate inhibition curve (BT474-P): 1.02
area under growth-rate inhibition curve (SKBR3-LTR): 1
area under growth-rate inhibition curve (SKBR3-P): 1.02
area under growth-rate inhibition curve (BT474-LTR): 1.03
area under growth-rate inhibition curve (MDA-MB-231): 1

CC1(C)O[C@@H]2[C@@H](CO[C@@]3(COS(N)(=O)=O)OC(C)(C)O[C@@H]23)O1 [Topiramate]
area under growth-rate inhibition curve (MDA-MB-468): 1.05
area under growth-rate inhibition curve (BT474-P): 1.02
area under growth-rate inhibition curve (SKBR3-LTR): 1.04
area under growth-rate inhibition curve (SKBR3-P): 1.02
area under growth-rate inhibition curve (BT474-LTR): 1.05
area under growth-rate inhibition curve (MDA-MB-231): 1.03

CN(C)CCC(c1ccc(Cl)cc1)c1ccccn1.O=C(O)/C=C\C(=O)O (configuration not stated) [Chlorpheniramine Maleate]
area under growth-rate inhibition curve (MDA-MB-468): 1.04
area under growth-rate inhibition curve (BT474-P): 1.05
area under growth-rate inhibition curve (SKBR3-LTR): 1.03
area under growth-rate inhibition curve (SKBR3-P): 1.01
area under growth-rate inhibition curve (BT474-LTR): 1.12
area under growth-rate inhibition curve (MDA-MB-231): 1.03

CC(C)c1cc(-c2ccc(F)c3ccccc23)nc(N)n1
area under growth-rate inhibition curve (MDA-MB-468): 1
area under growth-rate inhibition curve (BT474-P): 1.03
area under growth-rate inhibition curve (SKBR3-LTR): 1.07
area under growth-rate inhibition curve (SKBR3-P): 1.03
area under growth-rate inhibition curve (BT474-LTR): 1.08
area under growth-rate inhibition curve (MDA-MB-231): 0.999

CCOC(=O)C1(c2ccccc2)CCN(C)CC1 [meperidine]
area under growth-rate inhibition curve (MDA-MB-468): 1.04
area under growth-rate inhibition curve (BT474-P): 0.992
area under growth-rate inhibition curve (SKBR3-LTR): 1.06
area under growth-rate inhibition curve (SKBR3-P): 1.02
area under growth-rate inhibition curve (BT474-LTR): 1.04
area under growth-rate inhibition curve (MDA-MB-231): 1.04

O=C(Nc1c(Cl)cncc1Cl)c1ccc(OC(F)F)c(OCC2CC2)c1 [Roflumilast]
area under growth-rate inhibition curve (MDA-MB-468): 1.04
area under growth-rate inhibition curve (BT474-P): 1.03
area under growth-rate inhibition curve (SKBR3-LTR): 1.07
area under growth-rate inhibition curve (SKBR3-P): 1.01
area under growth-rate inhibition curve (BT474-LTR): 1.05
area under growth-rate inhibition curve (MDA-MB-231): 0.966

CN1C2CCC1CC(OC(=O)C(CO)c1ccccc1)C2 (configuration not stated) [Hyoscyamine]
area under growth-rate inhibition curve (MDA-MB-468): 1.04
area under growth-rate inhibition curve (BT474-P): 1.06
area under growth-rate inhibition curve (SKBR3-LTR): 1.04
area under growth-rate inhibition curve (SKBR3-P): 1.04
area under growth-rate inhibition curve (BT474-LTR): 1.13
area under growth-rate inhibition curve (MDA-MB-231): 1.03

CC(C)(C(=O)O)c1ccc(C(O)CCCN2CCC(C(O)(c3ccccc3)c3ccccc3)CC2)cc1.[Cl-].[H+] (configuration not stated) [Fexofenadine HCl]
area under growth-rate inhibition curve (MDA-MB-468): 1.03
area under growth-rate inhibition curve (BT474-P): 1.03
area under growth-rate inhibition curve (SKBR3-LTR): 1.01
area under growth-rate inhibition curve (SKBR3-P): 1.03
area under growth-rate inhibition curve (BT474-LTR): 1.01
area under growth-rate inhibition curve (MDA-MB-231): 1

Cc1cncc(CN2CCC(=C3c4ccc(Cl)cc4CCc4cccnc43)CC2)c1.O=C(O)/C=C/C(=O)O [Rupatadine Fumarate]
area under growth-rate inhibition curve (MDA-MB-468): 0.972
area under growth-rate inhibition curve (BT474-P): 0.974
area under growth-rate inhibition curve (SKBR3-LTR): 1.03
area under growth-rate inhibition curve (SKBR3-P): 0.966
area under growth-rate inhibition curve (BT474-LTR): 1.05
area under growth-rate inhibition curve (MDA-MB-231): 1.05

CC(C[N+](C)(C)C)OC(N)=O.[Cl-] (configuration not stated) [Bethanechol chloride]
area under growth-rate inhibition curve (MDA-MB-468): 1.04
area under growth-rate inhibition curve (BT474-P): 1.05
area under growth-rate inhibition curve (SKBR3-LTR): 1.07
area under growth-rate inhibition curve (SKBR3-P): 1.03
area under growth-rate inhibition curve (BT474-LTR): 1.11
area under growth-rate inhibition curve (MDA-MB-231): 1.03

CC(C)NCC(O)COc1ccc(CCOCC2CC2)cc1.[Cl-].[H+] (configuration not stated) [Betaxolol hydrochloride (Betoptic)]
area under growth-rate inhibition curve (MDA-MB-468): 1.04
area under growth-rate inhibition curve (BT474-P): 1.02
area under growth-rate inhibition curve (SKBR3-LTR): 1.06
area under growth-rate inhibition curve (SKBR3-P): 0.98
area under growth-rate inhibition curve (BT474-LTR): 1.1
area under growth-rate inhibition curve (MDA-MB-231): 1.05

CC(=O)OCC[N+](C)(C)C.[Cl-] [Acetylcholine Chloride]
area under growth-rate inhibition curve (MDA-MB-468): 1.04
area under growth-rate inhibition curve (BT474-P): 1.03
area under growth-rate inhibition curve (SKBR3-LTR): 1.05
area under growth-rate inhibition curve (SKBR3-P): 1.02
area under growth-rate inhibition curve (BT474-LTR): 1.09
area under growth-rate inhibition curve (MDA-MB-231): 1.04

O=C1CCc2ccc(OCCCCN3CCN(c4cccc(Cl)c4Cl)CC3)cc2N1 [Aripiprazole]
area under growth-rate inhibition curve (MDA-MB-468): 0.863
area under growth-rate inhibition curve (BT474-P): 0.924
area under growth-rate inhibition curve (SKBR3-LTR): 0.996
area under growth-rate inhibition curve (SKBR3-P): 0.971
area under growth-rate inhibition curve (BT474-LTR): 0.955
area under growth-rate inhibition curve (MDA-MB-231): 0.988

CS(=O)(=O)[O-].C[NH+]1[C@@H]2CC[C@H]1C[C@@H](OC(c1ccccc1)c1ccccc1)C2 [Benztropine mesylate]
area under growth-rate inhibition curve (MDA-MB-468): 0.994
area under growth-rate inhibition curve (BT474-P): 1.03
area under growth-rate inhibition curve (SKBR3-LTR): 1.01
area under growth-rate inhibition curve (SKBR3-P): 0.986
area under growth-rate inhibition curve (BT474-LTR): 1.08
area under growth-rate inhibition curve (MDA-MB-231): 1.03

CCCN(CCc1cccs1)[C@H]1CCc2c(O)cccc2C1 [Rotigotine]
area under growth-rate inhibition curve (MDA-MB-468): 0.992
area under growth-rate inhibition curve (BT474-P): 1.05
area under growth-rate inhibition curve (SKBR3-LTR): 1.08
area under growth-rate inhibition curve (SKBR3-P): 0.984
area under growth-rate inhibition curve (BT474-LTR): 1.08
area under growth-rate inhibition curve (MDA-MB-231): 1.03

CN(C)[C@@H](CCOc1cccc2ccccc12)c1ccccc1.[Cl-].[H+] [Dapoxetine HCl]
area under growth-rate inhibition curve (MDA-MB-468): 0.991
area under growth-rate inhibition curve (BT474-P): 0.985
area under growth-rate inhibition curve (SKBR3-LTR): 1.03
area under growth-rate inhibition curve (SKBR3-P): 0.974
area under growth-rate inhibition curve (BT474-LTR): 1.03
area under growth-rate inhibition curve (MDA-MB-231): 1.02
